Results: patent US20210009613A1, “ARYLPHOSPHINE OXIDES FOR INHIBITING KINASE ACTIVITY” (Shenzhen TargetRx, Inc., priority 2017, published 2021)

How the values were obtained:
I1171N/T/S = details: Crizotinib-resistant mutation; cited from earlier work
G1202R = G1202R (Homo sapiens, UniProt Q9UM73, G1202R); details: Crizotinib-resistant mutation; cited from earlier work
F1174C/V = details: Crizotinib-resistant mutation; cited from earlier work
Ba/F3 [EML4-ALK L1196M] [1] = molecular target: T1, Ba/F3 [EML4-ALK L1196M] (Homo sapiens, UniProt Q9UM73, L1196M, cells depend on it); assay: Cytotoxicity test (CellTiter-Glo), Ba/F3 [EML4-ALK L1196M]; format: cell-based; details: 72 hours, CellTiter-Glo; read-out: IC50(nM) ALK[L1196M] (Ba/F3)
T1 construct: IC50(nM) ALK[L1196M]; (Ba/F3); other: 72 hours, CellTiter-Glo; Ba/F3 [EML4-ALK L1196M]; fused on or other part: Q9HC35 (Echinoderm microtubule-associated protein-like 4)
T1 sequence (Q9UM73 whole entry L1196M, the tested form may be a part): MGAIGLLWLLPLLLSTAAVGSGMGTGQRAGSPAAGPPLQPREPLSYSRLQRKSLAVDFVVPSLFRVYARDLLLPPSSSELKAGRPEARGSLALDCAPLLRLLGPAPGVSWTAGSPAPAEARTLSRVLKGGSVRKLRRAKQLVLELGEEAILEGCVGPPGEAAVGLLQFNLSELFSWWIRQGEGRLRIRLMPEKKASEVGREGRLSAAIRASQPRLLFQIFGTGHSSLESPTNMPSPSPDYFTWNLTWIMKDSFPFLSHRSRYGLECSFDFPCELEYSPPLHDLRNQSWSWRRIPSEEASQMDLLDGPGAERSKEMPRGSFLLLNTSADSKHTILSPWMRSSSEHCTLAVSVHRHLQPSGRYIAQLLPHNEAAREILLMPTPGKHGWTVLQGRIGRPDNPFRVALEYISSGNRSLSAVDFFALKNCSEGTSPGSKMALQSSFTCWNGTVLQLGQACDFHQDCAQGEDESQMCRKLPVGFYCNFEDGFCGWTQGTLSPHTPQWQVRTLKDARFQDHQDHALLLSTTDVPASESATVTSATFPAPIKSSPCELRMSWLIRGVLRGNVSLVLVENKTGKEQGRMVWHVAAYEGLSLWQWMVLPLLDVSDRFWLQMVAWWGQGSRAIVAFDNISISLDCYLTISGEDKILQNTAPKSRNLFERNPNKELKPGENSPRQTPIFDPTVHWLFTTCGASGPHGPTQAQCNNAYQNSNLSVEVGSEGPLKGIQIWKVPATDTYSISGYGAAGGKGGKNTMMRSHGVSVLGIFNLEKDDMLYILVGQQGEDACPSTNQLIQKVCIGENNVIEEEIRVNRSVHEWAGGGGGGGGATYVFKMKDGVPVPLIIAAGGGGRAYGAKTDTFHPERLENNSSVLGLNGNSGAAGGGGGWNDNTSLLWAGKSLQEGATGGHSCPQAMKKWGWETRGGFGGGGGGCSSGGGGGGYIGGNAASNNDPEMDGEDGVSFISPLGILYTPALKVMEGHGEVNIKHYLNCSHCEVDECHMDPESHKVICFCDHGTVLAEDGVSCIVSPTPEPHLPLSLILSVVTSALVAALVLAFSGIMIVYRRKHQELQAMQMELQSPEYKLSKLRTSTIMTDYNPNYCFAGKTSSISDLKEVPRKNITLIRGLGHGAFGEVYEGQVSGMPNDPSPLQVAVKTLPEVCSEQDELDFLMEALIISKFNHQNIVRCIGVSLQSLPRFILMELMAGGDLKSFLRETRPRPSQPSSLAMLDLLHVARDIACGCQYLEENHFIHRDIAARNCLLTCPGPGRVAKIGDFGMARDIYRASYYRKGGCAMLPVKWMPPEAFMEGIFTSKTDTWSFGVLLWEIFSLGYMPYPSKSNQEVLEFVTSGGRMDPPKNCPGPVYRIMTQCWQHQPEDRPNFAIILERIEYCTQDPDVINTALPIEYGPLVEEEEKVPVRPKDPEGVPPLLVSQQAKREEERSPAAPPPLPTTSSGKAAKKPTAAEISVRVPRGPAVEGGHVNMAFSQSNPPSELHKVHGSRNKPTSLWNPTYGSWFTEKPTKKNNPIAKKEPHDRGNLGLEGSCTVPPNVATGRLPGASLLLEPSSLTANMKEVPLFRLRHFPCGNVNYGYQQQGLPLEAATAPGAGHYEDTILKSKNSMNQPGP
Experimental: (§1) The in vitro anti-proliferative activity of the compounds of the present disclosure against three types of cells that are cultured in vitro was tested by CellTiter-Glo method.
(§2) Cell lines: Ba/F3 parental; Ba/F3 [EML4-ALK] (From WuXi PharmaTech) and Ba/F3 [EML4-ALK L1196M] (From WuXi PharmaTech); wherein, Ba/F3 parental was cultured in RPMI1640 medium containing 10 ng/ml IL-3, […], 100 U/ml penicillin, and 100 μg/ml streptomycin, Ba/F3 [EML4-ALK] and Ba/F3 [EML4-ALK L1196M] were cultured in RPMI1640 medium containing 10% fetal bovine serum, 100 U/ml penicillin, and 100 μg/ml streptomycin.
(§3) Reagents and materials: RPMI-1640 (GIBCO, Cat. No. A10491-01); fetal bovine serum (GIBCO, Cat. No. 10099141); 0.25% trypsin-EDTA (GIBCO, Cat. No. 25200); penicillin-streptomycin, liquid (GIBCO, Cat. No. 15140-122); DMSO (Sigma, Cat. No. D2650); CellTiter-Glo Test Kit (Promega, Cat. No. G7572), and 96-well plate (Corning, Cat. No. 3365).
(§4) Specific experimental procedures: • 1. The test compounds were dissolved in DMSO to make stock solutions and subjected to a series gradient dilution to give solutions with 10-fold working concentration. • 2. The cells in the logarithmic growth phase were diluted with the culture solution to adjust to the specific cell concentration, 90 μl of cell suspension was added to the 96-well plate to make the cell density reach the specified concentration. The plate was incubated in a incubator at 37° C., containing 5% carbon dioxide gas overnight. • 3. 10 μl drug solutions were added to each well of the 96-well plate inoculated with cells. 10 concentrations of the compounds were tested starting from the highest concentration of 20 μM with a 3-fold series gradient dilution in duplicate. • 4. After continuously cultured for 72 hours, the cells were detected by CellTiter-Glo for the cell viability. The dose-effect curve was made using GraphPad Prism software and IC50 was calculated.

Ba/F3 [EML4-ALK L1196M] [2] = assay: as above; format: cell-based; details: ratio of Ba/F3 IC50 values
Experimental: as §1, §2, §3, §4

ALK [WT] = ALK [WT] (Homo sapiens, UniProt Q9UM73); assay: Kinase inhibition assay, ALK [WT]; format: biochemical
ALK [WT], sequence (Q9UM73 19-1620): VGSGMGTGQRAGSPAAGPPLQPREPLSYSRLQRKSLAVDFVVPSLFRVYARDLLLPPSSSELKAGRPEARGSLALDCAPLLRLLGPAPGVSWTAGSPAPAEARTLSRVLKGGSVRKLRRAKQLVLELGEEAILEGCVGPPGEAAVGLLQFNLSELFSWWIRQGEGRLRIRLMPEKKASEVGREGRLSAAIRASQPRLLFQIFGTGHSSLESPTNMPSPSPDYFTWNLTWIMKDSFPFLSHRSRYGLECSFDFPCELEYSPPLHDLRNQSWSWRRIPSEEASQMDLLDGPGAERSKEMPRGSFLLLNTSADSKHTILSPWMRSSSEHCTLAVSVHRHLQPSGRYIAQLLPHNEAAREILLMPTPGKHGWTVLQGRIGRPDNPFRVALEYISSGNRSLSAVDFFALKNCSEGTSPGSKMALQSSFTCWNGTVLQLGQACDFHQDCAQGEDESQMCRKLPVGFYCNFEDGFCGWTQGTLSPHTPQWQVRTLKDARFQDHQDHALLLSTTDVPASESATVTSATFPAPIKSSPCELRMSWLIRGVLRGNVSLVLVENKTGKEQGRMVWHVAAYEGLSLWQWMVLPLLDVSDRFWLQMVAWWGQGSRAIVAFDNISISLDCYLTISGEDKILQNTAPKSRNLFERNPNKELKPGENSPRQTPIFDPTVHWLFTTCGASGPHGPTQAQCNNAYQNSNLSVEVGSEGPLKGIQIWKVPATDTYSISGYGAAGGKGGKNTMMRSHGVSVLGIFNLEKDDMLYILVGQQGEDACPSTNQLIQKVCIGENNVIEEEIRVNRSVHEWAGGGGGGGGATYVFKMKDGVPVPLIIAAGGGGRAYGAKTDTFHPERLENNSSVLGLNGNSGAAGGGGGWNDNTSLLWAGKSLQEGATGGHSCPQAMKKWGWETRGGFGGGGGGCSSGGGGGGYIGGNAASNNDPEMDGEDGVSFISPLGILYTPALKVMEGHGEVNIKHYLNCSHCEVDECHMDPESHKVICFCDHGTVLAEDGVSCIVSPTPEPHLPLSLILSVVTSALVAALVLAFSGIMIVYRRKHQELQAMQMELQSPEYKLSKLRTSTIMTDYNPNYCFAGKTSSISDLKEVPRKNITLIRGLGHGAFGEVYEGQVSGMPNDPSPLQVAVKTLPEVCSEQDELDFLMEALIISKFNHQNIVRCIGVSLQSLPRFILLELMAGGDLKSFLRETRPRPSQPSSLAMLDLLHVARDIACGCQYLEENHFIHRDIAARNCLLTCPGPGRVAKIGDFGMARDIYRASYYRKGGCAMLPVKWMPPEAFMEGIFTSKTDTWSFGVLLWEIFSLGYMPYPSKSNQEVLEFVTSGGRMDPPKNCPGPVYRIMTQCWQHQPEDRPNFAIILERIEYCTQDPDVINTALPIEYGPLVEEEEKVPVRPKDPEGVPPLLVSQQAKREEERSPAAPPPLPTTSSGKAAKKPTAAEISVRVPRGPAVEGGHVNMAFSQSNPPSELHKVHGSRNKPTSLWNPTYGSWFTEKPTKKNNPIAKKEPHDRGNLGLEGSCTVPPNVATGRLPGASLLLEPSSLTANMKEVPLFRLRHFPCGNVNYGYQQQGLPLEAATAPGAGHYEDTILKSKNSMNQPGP
Experimental: (§5) Compound preparation: The test compounds were dissolved in DMSO to make 20 mM stock solutions. The compounds were diluted in DMSO to 0.1 mM (a dilution with 100 times the final concentration) before use, and a 3-fold series gradient dilution with 11 concentrations was made. Dilutions with 4 times of the final concentration were prepared by diluting with buffer when dosing.
(§6) Kinase assay: after preparing the buffer solution, the enzyme was mixed with pre-diluted compounds with different concentrations, and placed at room temperature for 30 minutes in duplicate. The corresponding substrate and ATP were added thereto and reacted at room temperature for 60 minutes (both a negative and a positive control were set). After the reaction, antibody was added for detection, and after incubation at room temperature for 60 minutes, Evnvision detection was carried out, and data was collected. Data was analyzed and fit according to XLfit5 software. IC50 was calculated by the following formula: (IC50=[(ABS test-ABS begin)/(ABS control-ABS begin)]×100).

ALK [L1196M] = ALK [L1196M] (Homo sapiens, UniProt Q9UM73, L1196M); assay: Kinase inhibition assay, ALK [L1196M]; format: biochemical
ALK [L1196M], sequence (Q9UM73 19-1620 L1196M): as the sequence (Q9UM73 19-1620) above, with L1178M counted along it
Experimental: as §5, §6

Ba/F3 parental = assay: Cytotoxicity test (CellTiter-Glo), Ba/F3 parental; format: cell-based; details: Mus musculus, BaF3, 72 hours
Experimental: as §1, §2, §3, §4

Ba/F3 [EML4-ALK] [3] = molecular target: T2, Ba/F3 [EML4-ALK] (Homo sapiens, UniProt Q9UM73); assay: Cytotoxicity test (CellTiter-Glo), Ba/F3 [EML4-ALK]; format: cell-based; details: 72 hours, CellTiter-Glo; read-out: IC50(nM) ALK (Ba/F3)
T2 construct: IC50(nM) ALK (Ba/F3); other: 72 hours, CellTiter-Glo; Ba/F3 [EML4-ALK]; fused on or other part: Q9HC35 (Echinoderm microtubule-associated protein-like 4)
T2 sequence (Q9UM73 whole entry, change not shown, the tested form may be a part): as the sequence (Q9UM73 whole entry L1196M, the tested form may be a part) above, with M1196L counted along it
Experimental: as §1, §2, §3, §4

Ba/F3 [EML4-ALK] [4] = assay: as above; format: cell-based; details: ratio of Ba/F3 IC50 values
Experimental: as §1, §2, §3, §4

G1202R, sequence (Q9UM73 19-1620 G1202R): as the sequence (Q9UM73 19-1620) above, with G1184R counted along it

SMILES | effect on I1171N/T/S (I1171N/T/S) | effect on G1202R (G1202R) | effect on F1174C/V (F1174C/V) | GI50 (Ba/F3 [EML4-ALK L1196M] [1]) [nM] | Selectivity parental/ALK[L1196M] (Ba/F3 [EML4-ALK L1196M] [2]) | IC50 (ALK [WT]) [nM] | IC50 (ALK [L1196M]) [nM] | IC50 (Ba/F3 parental) [nM] | GI50 (Ba/F3 [EML4-ALK] [3]) [nM] | Selectivity parental/ALK (Ba/F3 [EML4-ALK] [4])
CCc1cc2c(cc1N1CCC(N3CCOCC3)CC1)C(C)(C)c1[nH]c3cc(C#N)ccc3c1C2=O [Alectinib] | no effect | – | – | – | – | – | – | – | – | –
Cc1cc(Nc2ncc(Cl)c(Nc3ccccc3S(=O)(=O)C(C)C)n2)c(OC(C)C)cc1C1CCNCC1 [Ceritinib] | – | neither of them has effect | no effect | – | – | – | – | – | – | –
COc1nc(N2CCN(C)CC2)ccc1Nc1nc(Nc2ccccc2P(C)(C)=O)c2cc[nH]c2n1 [Example 14, (2-((2-((2-methoxy-6-(4-methylpiperazin-1-yl)pyridin-3-yl)amino)-7H-pyrrolo[2,3-d]pyrimidin-4-yl)amino)phenyl)dimethylphosphine oxide] | – | – | – | ≤ 50 | 0~50 | ≤ 5 | ≤ 5 | 400 to 1000 | ≤ 50 | 50~100
COc1nc(N(C)CCN(C)C)ccc1Nc1nc(Nc2ccccc2P(C)(C)=O)c2cc[nH]c2n1 [Example 15] | – | – | – | 50 to 100 | 0~50 | 5 to 10 | ≤ 5 | ≥ 1000 | ≤ 50 | 50~100
COc1nc(N2CCC(N3CCN(C)CC3)CC2)ccc1Nc1nc(Nc2ccccc2P(C)(C)=O)c2cc[nH]c2n1 [Example 16, (2-((2-((2-methoxy-6-(4-(4-methylpiperazin-1-yl)piperidin-1-yl)pyridin-3-yl)amino)-7H-pyrrolo[2,3-d]pyrimidin-4-yl)amino)phenyl)dimethylphosphine oxide] | – | – | – | 50 to 100 | 0~50 | ≤ 5 | 5 to 10 | 400 to 1000 | ≤ 50 | 50~100
CP(C)(=O)c1ccccc1Nc1nc(Nc2ccc(CCN)nc2OCC(F)(F)F)ncc1Cl [Example 17, (2-((2-((6-(2-aminoethyl)-2-(2,2,2-trifluoroethoxy)pyridin-3-yl)amino)-5-chloropyrimidin-4-yl)amino)phenyl)dimethylphosphine oxide] | – | – | – | 400 to 1000 | 0~50 | 10 to 50 | 50 to 100 | ≥ 1000 | 100 to 400 | 50~100
CNCCc1ccc(Nc2ncc(Cl)c(Nc3ccccc3P(C)(C)=O)n2)c(OCC(F)(F)F)n1 [Example 18, (2-((5-chloro-2-((6-(2-(methylamino)ethyl)-2-(2,2,2-trifluoroethoxy)pyridin-3-yl)amino)pyrimidin-4-yl)amino)phenyl)dimethylphosphine oxide] | – | – | – | 100 to 400 | 0~50 | 10 to 50 | 50 to 100 | ≥ 1000 | 100 to 400 | 50~100
CN(C)CCc1ccc(Nc2ncc(Cl)c(Nc3ccccc3P(C)(C)=O)n2)c(OCC(F)(F)F)n1 [Example 19, (2-((5-chloro-2-((6-(2-(dimethylamino)ethyl)-2-(2,2,2-trifluoroethoxy)pyridin-3-yl)amino)pyrimidin-4-yl)amino)phenyl)dimethylphosphine oxide] | – | – | – | 100 to 400 | 50~100 | 10 to 50 | 50 to 100 | ≥ 1000 | 50 to 100 | 100~200
